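Growth conditions: 96-well plates. Treatment: test compound, 48 hours, 5 concentrations. Analysis: linear interpolation between bracketing concentrations; unreached endpoints set to highest concentration. Abbreviation: GI50, concentration required for 50% inhibition of growth. TGI: total growth inhibition.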
Tests used:
Test in all cases: growth of human tumour cells (NCI), 48 h
TK-10 renal = tested on: TK-10 renal
UO-31 renal = tested on: UO-31 renal
OVCAR-3 ovarian = tested on: OVCAR-3 ovarian
CCRF-CEM leukemia = tested on: CCRF-CEM leukemia
HOP-62 NSCLC = tested on: HOP-62 NSCLC
SNB-19 CNS = tested on: SNB-19 CNS
LOX IMVI melanoma = tested on: LOX IMVI melanoma
HL-60(TB) leukemia = tested on: HL-60(TB) leukemia
MCF7 breast = tested on: MCF7 breast
A498 renal = tested on: A498 renal
EKVX NSCLC = tested on: EKVX NSCLC
NCI-H226 lung = tested on: NCI-H226 lung
NCI-H23 lung = tested on: NCI-H23 lung
PC-3 prostate = tested on: PC-3 prostate
BT-549 breast = tested on: BT-549 breast
HCC-2998 colon = tested on: HCC-2998 colon
DU-145 prostate = tested on: DU-145 prostate
SW-620 colon = tested on: SW-620 colon
UACC-62 melanoma = tested on: UACC-62 melanoma
NCI/ADR-RES ovarian = tested on: NCI/ADR-RES ovarian
SK-OV-3 ovarian = tested on: SK-OV-3 ovarian
HCT-15 colon = tested on: HCT-15 colon
SF-539 CNS = tested on: SF-539 CNS
U251 CNS = tested on: U251 CNS
KM12 colon = tested on: KM12 colon
COLO 205 colon = tested on: COLO 205 colon
SN12C renal = tested on: SN12C renal
HT29 colon = tested on: HT29 colon
SK-MEL-28 melanoma = tested on: SK-MEL-28 melanoma
HS 578T breast = tested on: HS 578T breast
HCT-116 colon = tested on: HCT-116 colon
HOP-92 NSCLC = tested on: HOP-92 NSCLC
SF-295 CNS = tested on: SF-295 CNS
IGROV1 ovarian = tested on: IGROV1 ovarian
ACHN renal = tested on: ACHN renal
NCI-H522 lung = tested on: NCI-H522 lung
OVCAR-8 ovarian = tested on: OVCAR-8 ovarian
SR leukemia = tested on: SR leukemia
SNB-75 CNS = tested on: SNB-75 CNS
K-562 leukemia = tested on: K-562 leukemia
786-0 renal = tested on: 786-0 renal
MDA-MB-231 breast = tested on: MDA-MB-231 breast
CAKI-1 renal = tested on: CAKI-1 renal
MDA-MB-435 = tested on: MDA-MB-435
MOLT-4 leukemia = tested on: MOLT-4 leukemia
T-47D breast = tested on: T-47D breast
OVCAR-5 ovarian = tested on: OVCAR-5 ovarian
OVCAR-4 ovarian = tested on: OVCAR-4 ovarian
M14 melanoma = tested on: M14 melanoma
RPMI-8226 leukemia = tested on: RPMI-8226 leukemia
SF-268 CNS = tested on: SF-268 CNS
A549 NSCLC = tested on: A549 NSCLC
NCI-H460 lung = tested on: NCI-H460 lung
SK-MEL-2 melanoma = tested on: SK-MEL-2 melanoma
UACC-257 melanoma = tested on: UACC-257 melanoma
SK-MEL-5 melanoma = tested on: SK-MEL-5 melanoma
RXF 393 renal = tested on: RXF 393 renal

With `O=C(Nc1cccc(O)c1)c1cccc(NC2=C(Cl)C(=O)N(Cc3ccccc3)C2=O)c1` the GI50 (TK-10 renal) was 15 µM, the TGI (TK-10 renal) was 29.8 µM and the GI50 (UO-31 renal) was 6.61 µM. For the same compound, the TGI (UO-31 renal) was 21.7 µM, the GI50 (OVCAR-3 ovarian) was 8.16 µM and the TGI (OVCAR-3 ovarian) was 23 µM. It also gave a GI50 (CCRF-CEM leukemia) of 0.513 µM, a TGI (CCRF-CEM leukemia) greater than 100 µM and a GI50 (HOP-62 NSCLC) of 19.2 µM. It also gave a TGI (HOP-62 NSCLC) of 33.6 µM, a GI50 (SNB-19 CNS) of 18.8 µM and a TGI (SNB-19 CNS) of 41.4 µM. The GI50 (LOX IMVI melanoma) was 11.1 µM, the TGI (LOX IMVI melanoma) was 23.1 µM and the GI50 (HL-60(TB) leukemia) was 4.88 µM. For the same compound, the TGI (HL-60(TB) leukemia) was 27.9 µM, the GI50 (MCF7 breast) was 23.4 µM and the TGI (MCF7 breast) was 59.9 µM. For the same compound, the GI50 (A498 renal) was 13.2 µM, the TGI (A498 renal) was 28.9 µM and the GI50 (EKVX NSCLC) was 17.3 µM. For the same compound, the TGI (EKVX NSCLC) was 32.1 µM, the GI50 (NCI-H226 lung) was 18.7 µM and the TGI (NCI-H226 lung) was 44.4 µM. It also gave a GI50 (NCI-H23 lung) of 20.6 µM, a TGI (NCI-H23 lung) of 35.8 µM and a GI50 (PC-3 prostate) of 8.29 µM. The TGI (PC-3 prostate) was 25 µM, the GI50 (BT-549 breast) was 0.396 µM and the TGI (BT-549 breast) was 2.05 µM. It also gave a GI50 (HCC-2998 colon) of 15.8 µM, a TGI (HCC-2998 colon) of 29.4 µM and a GI50 (DU-145 prostate) of 3.61 µM. For the same compound, the TGI (DU-145 prostate) was 16 µM, the GI50 (SW-620 colon) was 6.53 µM and the TGI (SW-620 colon) was 29.9 µM. For the same compound, the GI50 (UACC-62 melanoma) was 14.6 µM, the TGI (UACC-62 melanoma) was 28.1 µM and the GI50 (NCI/ADR-RES ovarian) was 19.7 µM. The TGI (NCI/ADR-RES ovarian) was 37 µM, the GI50 (SK-OV-3 ovarian) was 18.6 µM and the TGI (SK-OV-3 ovarian) was 34.6 µM. It also gave a GI50 (HCT-15 colon) of 16.2 µM, a TGI (HCT-15 colon) of 30.1 µM and a GI50 (SF-539 CNS) of 3.57 µM. The TGI (SF-539 CNS) was 15.6 µM, the GI50 (U251 CNS) was 13.7 µM and the TGI (U251 CNS) was 26.6 µM. It also gave a GI50 (KM12 colon) of 11.4 µM, a TGI (KM12 colon) of 25 µM and a GI50 (COLO 205 colon) of 27.4 µM. The TGI (COLO 205 colon) was 67 µM, the GI50 (SN12C renal) was 8.26 µM and the TGI (SN12C renal) was 22.1 µM. It also gave a GI50 (HT29 colon) of 22.2 µM, a TGI (HT29 colon) of 49.7 µM and a GI50 (SK-MEL-28 melanoma) of 16.9 µM. It also gave a TGI (SK-MEL-28 melanoma) of 36.3 µM, a GI50 (HS 578T breast) of 12.7 µM and a TGI (HS 578T breast) of 43.5 µM. The GI50 (HCT-116 colon) was 18.1 µM, the TGI (HCT-116 colon) was 32 µM and the GI50 (HOP-92 NSCLC) was 11.7 µM. The TGI (HOP-92 NSCLC) was 29.4 µM, the GI50 (SF-295 CNS) was 6.39 µM and the TGI (SF-295 CNS) was 21.3 µM. It also gave a GI50 (IGROV1 ovarian) of 1.19 µM, a TGI (IGROV1 ovarian) of 6.11 µM and a GI50 (ACHN renal) of 17.9 µM. It also gave a TGI (ACHN renal) of 33.1 µM, a GI50 (NCI-H522 lung) of 3.08 µM and a TGI (NCI-H522 lung) of 17.4 µM. It also gave a GI50 (OVCAR-8 ovarian) of 13.1 µM, a TGI (OVCAR-8 ovarian) of 43.5 µM and a GI50 (SR leukemia) of 0.315 µM. The TGI (SR leukemia) was 3.36 µM, the GI50 (SNB-75 CNS) was 18.4 µM and the TGI (SNB-75 CNS) was 36.3 µM. The GI50 (K-562 leukemia) was 1.51 µM, the TGI (K-562 leukemia) was 28.4 µM and the GI50 (786-0 renal) was 15.2 µM. The TGI (786-0 renal) was 30.2 µM, the GI50 (MDA-MB-231 breast) was 11.9 µM and the TGI (MDA-MB-231 breast) was 31.9 µM. It also gave a GI50 (CAKI-1 renal) of 0.318 µM, a TGI (CAKI-1 renal) of 0.806 µM and a GI50 (MDA-MB-435) of 2.59 µM. The TGI (MDA-MB-435) was 11.4 µM, the GI50 (MOLT-4 leukemia) was 1.04 µM and the TGI (MOLT-4 leukemia) was greater than 100 µM. For the same compound, the GI50 (T-47D breast) was 23.5 µM, the TGI (T-47D breast) was 60.5 µM and the GI50 (OVCAR-5 ovarian) was 12.1 µM. For the same compound, the TGI (OVCAR-5 ovarian) was 28 µM, the GI50 (OVCAR-4 ovarian) was 19.2 µM and the TGI (OVCAR-4 ovarian) was 47.9 µM. For the same compound, the GI50 (M14 melanoma) was 20.5 µM, the TGI (M14 melanoma) was 40 µM and the GI50 (RPMI-8226 leukemia) was 1.49 µM. The TGI (RPMI-8226 leukemia) was 27 µM, the GI50 (SF-268 CNS) was 21.8 µM and the TGI (SF-268 CNS) was 54.2 µM. The GI50 (A549 NSCLC) was 18.8 µM, the TGI (A549 NSCLC) was 48.3 µM and the GI50 (NCI-H460 lung) was 36.8 µM. The TGI (NCI-H460 lung) was greater than 100 µM, the GI50 (SK-MEL-2 melanoma) was 4.63 µM and the TGI (SK-MEL-2 melanoma) was 19.3 µM. It also gave a GI50 (UACC-257 melanoma) of 14 µM, a TGI (UACC-257 melanoma) of 31.8 µM and a GI50 (SK-MEL-5 melanoma) of 6.09 µM. It also gave a TGI (SK-MEL-5 melanoma) of 20.1 µM, a GI50 (RXF 393 renal) of 14.8 µM and a TGI (RXF 393 renal) of 42.3 µM.
